“Also recorded” adds a separate entry of the source. No end group written: not given here.
How the values were obtained:
[1] = Food intake after icv hURP; type: in vivo, rat; settings: 5 μg icv
Procedure: The effect of human urocortin-related peptide on appetite was also examined in rats. Cannulas for injection of human urocortin-related peptide were surgically into the right lateral ventricle and the animals were allowed to recover for seven days. During the time, the animals were handled daily to acclimatize the animals to the injection procedure. On the day of injection, the animals were injected with either 5 μl of saline or 5 μl of 1 μg/μl human urocortin-related peptide in saline. The amount of food eaten by each animal was recorded every hour for six hours and at fourteen hours.

[2] = Body temperature after icv hURP; type: in vivo, rat; settings: 5 μg icv, monitored twelve hours
Source text: The effect of human urocortin-related peptide on the body temperature of rats was examined. Cannulas for injection of human urocortin-related peptide were surgically into the right lateral ventricle. Telemeters for the continuous unobtrusive analysis of body temperature were implanted intraabdominally. The animals were allowed a post-surgical recovery period of seven days. During the time, the animals were handled daily to acclimatize the animals to the injection procedure. On the day of injection, baseline temperature was for recorded for three hours. At 6:00 p.m. (the onset of lights out) the animals were injected with either 5 μl of saline or 5 μl of 1 μg/μl human urocortin-related peptide in saline. Body temperature was monitored every five minutes for twelve hours.

Fos expression = experiment: hURP-stimulated Fos expression in rat brain; type: in vivo; settings: 5 μg icv, rats sacrificed two hours later
Procedure: Activation of central stress-related cells groups by human urocortin-related peptide was examined by detection of the Fos gene product in the cells following injection with human urocortin-related peptide. Rats were implanted with guide cannulae in a lateral cerebral ventricle seven days prior to experimentation. On the day of testing, the rats were injected with 5 μg synthetic human urocortin-related peptide in 5 μl of sterile saline. The rats were sacrificed two hours later and slides of various brain sections were prepared. The slides were stained by immunoperoxidase localization of Fos-immunoreactivity using a polyclonal serum raised in rabbit against residues 3-16 of the human Fos protein.

[3] = Gross motor activity after icv hURP; type: in vivo, rat; settings: 5 μg icv, counts over four hours
Source text: To determine if human urocortin-related peptide plays a role in the generation of stress response, the effect of human urocortin-related peptide on the gross motor activity of rats was examined. Cannulas were surgically into the right lateral ventricle while telemeters were implanted intraabdominally to allow for continuous monitoring of gross motor activity. The animals were allowed a post-surgical recovery period of seven days. During the time, the animals were handled daily to acclimatize the animals to the injection procedure. On the day of injection, baseline activity was for recorded for four hours. At 6:00 p.m., which was the onset of lights out, the animals received an injection of either 5 μl of saline or 5 μl of saline containing a total of 5 μg of human urocortin-related peptide. Activity counts were summated over a four hour time period.

CRFR1 [4] = molecular target: T1, CRFR1 (Homo sapiens, UniProt P34998); experiment: Accumulation of intracellular cAMP in stably transfected CHO cells; type: cell-based; settings: peptides 20 min at 37° C.
T1 construct: expressed in transfected cells; host or cells: CHO cells, stably transfected
T1 sequence (P34998 24-415): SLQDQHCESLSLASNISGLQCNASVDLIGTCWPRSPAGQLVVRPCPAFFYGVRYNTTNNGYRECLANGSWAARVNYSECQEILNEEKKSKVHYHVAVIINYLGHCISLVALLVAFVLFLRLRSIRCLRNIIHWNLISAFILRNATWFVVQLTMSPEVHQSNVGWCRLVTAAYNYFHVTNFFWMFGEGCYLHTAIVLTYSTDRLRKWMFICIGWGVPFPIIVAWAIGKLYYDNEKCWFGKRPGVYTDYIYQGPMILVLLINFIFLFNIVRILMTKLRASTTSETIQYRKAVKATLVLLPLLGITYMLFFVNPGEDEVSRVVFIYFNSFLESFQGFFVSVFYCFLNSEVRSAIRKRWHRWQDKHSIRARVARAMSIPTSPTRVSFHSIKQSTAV
Procedure: (§1) The values were determined from 3-6 independent experiments using stably transfected CHO cells or their membranes for each test peptide. EC50 and Ki values were determined using Prism software. Their log10 values were averaged (γ). The average EC50 or Ki was taken to be 10^γ. The standard deviation of the log10 values was calculated (σ). The ranges given were taken to be: [(10^γ)10^σ or 10^γ/10^σ].
(§2) This significant selectivity for the type 2 receptor was seen also in receptor activation as measured by accumulation of intracellular cAMP. Stably transfected CHO cells (cultured in DMEM/10% FBS) were plated into 48-well tissue culture dishes (Costar) and allowed to recover for 24 hours. The medium was changed to DMEM/0.1% FBS at least two hours before treatment. The cells were preincubated for 30 min with 0.1 mM 3-isobutyl-1-methylxanthine and then exposed to peptides for 20 min at 37° C. Intracellular cAMP was extracted and measured in duplicate from triplicate wells using a RIA kit (Biomedical Technologies). […] The extremely low affinity of Ucn II for CRF-R1 precluded a determination of its efficacy on this receptor.

CRF-R2 = molecular target: T2, CRF-R2 (Mus musculus, UniProt Q60748); experiment: as above; type: cell-based; settings: peptides 20 min at 37° C.
T2 construct: expressed in transfected cells; host or cells: CHO cells, stably transfected
Procedure: as §1, §2

CRFR1 [5] = molecular target: T1, CRFR1; experiment: Radioreceptor assay, displacement of 125I-[Tyr0,Glu1,Nle17]-sauvagine, CHO cell membranes (Example 4); settings: 3-6 experiments, range from SD of log10 values, read-out: CRF-R1 Avg. Ki (nM) (Binding)
Procedure: (§3) The affinity of Ucn II to the CRF-R1 and CRF-R2 receptors was evaluated using a radioreceptor assay. Crude membrane fractions were prepared from CHO cells stably expressing either cloned CRF-R1 or CRF-R2β. Test peptides and the radioligand, ^125I-[Tyr^0, Glu^1, Nle^17]-sauvagine, were diluted in assay buffer (20 mM HEPES, 2 mM EGTA, 0.1% BSA, 10% sucrose, pH 7.6) and combined with the receptor membrane preparations in MAGV microtiter plates (Millipore) pre-coated with 0.1% polyethylene imine. The reaction mixture was incubated for 90 min at room temperature followed by rapid washing twice with assay buffer and filtration. The radioligand complex was quantified by gamma radiation counting. Inhibitory binding constants were determined using Prism software.
as §1

CRF-R2β = molecular target: T3, CRF-R2β (Mus musculus, UniProt Q60748); experiment: as above; settings: 3-6 experiments, range from SD of log10 values, read-out: CRF-R2 Avg. Ki (nM) (Binding)
T3 construct: expressed in transfected cells; host or cells: CHO cells, stably transfected
Procedure: as §3, §1

[6] = system: rat anterior pituitary cells; experiment: ACTH secretion from primary rat anterior pituitary cells; type: cell-based; settings: primary cultures of rat anterior pituitary cells
Procedure: Secreted ACTH was measured using a kit (Nichols Institute Diagnostics).
For pituitary actions, ACTH secretion response to human urocortin-related peptide was measured in primary cultures of rat anterior pituitary cells as described (30). ACTH levels were determined using the ACTH immunoassay kit from Nichols Institute Diagnostics. The rat anterior pituitary cells were treated with either rat urocortin or human urocortin-related peptide and the level of secreted ACTH was measured, using a kit (Nichols Institute Diagnostics).

CRFR1 [7] = molecular target: T1, CRFR1; experiment: Displacement of 125I-Sauvagine binding, CHO membranes (Example 5)
Procedure: (§4) FIGS. 5A and 5B show the human urocortin-related peptide mediated displacement of ^125I-Sauvagine binding to CRFR1 and CRFR2β, respectively. The affinities of Ucn and URP peptides for CRFR1 and CRFR2β_stably expressed in CHO cells were determined by the competitive displacement of the ^125I-Sauvagine.
(§5) Membranes were prepared as described above (29). Binding was performed in 96-well 0.2 μm Durapore plates using the vacuum filtration multiscreen assay system (Millipore). […] Plates were incubated for 1 hour at room temperature, vacuum-filtered, washed twice with binding buffer, and allowed to dry. Individual filters were punched out and counted using a gamma counter.

CRFR2β = experiment: as above; settings: CRF-R2β versus CRF-R1
Procedure: as §4, §5

[8] = Telemetric gross motor activity after icv peptide; type: in vivo, rat; settings: 1 μg icv, rats, telemetry
Source text: (§6) To identify cell groups responsive to central Ucn II administration, and to evaluate the extent to which these may conform to sites of CRF-R2 expression, the induced expression of the immediate-early gene product, Fos, in response; to icv peptide administration was monitored. Adult male Sprague-Dawley rats (250-300 g at start of experiments) and C57 BL/6 mice (25-40 g) were housed in a colony room on a 12:12 light:dark cycle, and with free access to food and water prior to experimentation. For intracerebroventricular (icv) injections, rats were anesthetized with ketamine/xylazine/acepromazine and stereotaxically implanted with a 26 ga guide cannula terminating in the lateral ventricle. For intravenous (iv) administration of peptides, animals were fitted with indwelling jugular venous catheters. Rats that received icv injections were also implanted intra-abdominally with a transmitter to remotely monitor gross activity levels and body temperature (Mini-Mitter). After surgery, animals were allowed to recover for 7 days prior to any experimentation, during which time they were handled daily. […]
In these same subjects, gross motor activity and body temperature were monitored telemetrically (FIG. 10B). […] Core body temperature was also recorded, with each peptide provoking comparably mild (0.5-1° C.) and transient (2 hr) hypothermic responses (data not shown).

[9] = Nocturnal food intake after icv peptide; type: in vivo, rat; settings: 1 μg icv, rats
Source text: as §6, with “catheters.” for “catheters. Rats that received icv injections were also implanted intra-abdominally with a transmitter to remotely monitor gross activity levels and body temperature (Mini-Mitter). After surgery, animals were allowed to recover for 7 days prior to any experimentation, during which time they were handled daily.”
To monitor induced patterns of Fos expression, rats were injected at 10 am, either icv or iv with synthetic Ucn II (1, 5 or 10 μg/animal in 2 μl saline for icv injections or 200 μl for iv administration), or vehicle alone, and perfused two hours later. […] Consumption was then measured hourly for 6 hrs and at 12 hrs. Data were analyzed using repeated measures analysis of variance (ANOVA), with the Bonferoni correction for multiple comparisons applied as warranted. […]

T3 sequence (Q60748 27-431 isoform Q60748-2 limits assumed): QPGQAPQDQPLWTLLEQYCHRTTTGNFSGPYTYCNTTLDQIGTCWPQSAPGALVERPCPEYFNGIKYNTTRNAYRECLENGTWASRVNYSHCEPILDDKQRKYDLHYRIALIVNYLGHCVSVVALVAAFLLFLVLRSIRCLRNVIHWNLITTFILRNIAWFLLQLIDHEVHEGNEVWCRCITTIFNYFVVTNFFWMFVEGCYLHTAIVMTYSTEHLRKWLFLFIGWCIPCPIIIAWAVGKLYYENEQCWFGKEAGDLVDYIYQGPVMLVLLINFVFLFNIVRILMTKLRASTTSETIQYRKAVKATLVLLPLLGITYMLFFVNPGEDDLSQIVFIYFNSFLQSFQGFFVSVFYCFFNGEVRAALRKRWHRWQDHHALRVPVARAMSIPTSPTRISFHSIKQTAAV
T2 sequence (Q60748 27-431 isoform Q60748-2 limits assumed): as above

Substance: IVLSLDVPIGLLQILLEQARARAAREQATTNARILARVGHC-NH2 [URP (human)]
- Total food consumed versus control ([1]; over fourteen hours): ate significantly less food than control animals
- Food consumed during each time period versus control ([1]; per time period): especially ate less food during the first and third hours after injection as well as during the final eight hours of the experiment
- Body temperature versus saline controls [2]: lower body temperatures both immediately and at seven hours after injection
- Fos-immunoreactivity in central stress-related cell groups (Fos expression): Fos-immunoreactivity was detected
- Gross motor activity versus saline controls [3]: No significant difference in gross motor activity
- EC50 (CRFR1 [4]): > 100 nM
- EC50 (CRF-R2): 0.42 nM
- Ki (CRFR1 [5]): > 100 nM
- Ki (CRF-R2β): 0.5 nM
- Stimulation of ACTH secretion relative to urocortin ([6]; listed as Human urocortin-related peptide): significantly lower potency compared to urocortin or CRF
- Stimulation of ACTH secretion relative to urocortin ([6]; listed as human urocortin-related peptide): less sensitive to human urocortin-related peptide than to urocortin
- Ki (CRFR1 [7]; Example 5, FIG. 5, CHO cells, read-out: Disassociation constant (Ki) for CRF-R1): 78 nM
- Ki (CRFR1 [7]; synthesized peptide, as stated in the Summary, read-out: Ki for CRF-R1 (summary statement)): 70 nM
- Specificity for CRF type II receptor relative to urocortin (CRFR2β): much more specific for the corticotropin releasing factor type II receptor than urocortin

Substance: CRF: 41-amino acid peptide initiating pituitary-adrenal responses to stress; R1-selective agonist (SEEPPISLDLTFHLLREVLEMARAEQLAQQAHSNRKLMEII; ends and bridges not checked; UniProt P06850 154-194, looked up)
- Gross motor activity versus vehicle [8]: significantly more active than vehicle-treated rats; also recorded: significantly elevated
- Degree of suppression of food intake over the 12 hr interval ([9]; nocturnal phase): 30%
- Time post-injection at which food intake is significantly less than saline controls [9]: 4 h

— patent publication US8044025B2 (Research Development Foundation, priority 2000, dated 2011)
